Molecules are shown by their SMILES.

Regarding `CCCCNC(=O)C(C)CC(O)C1C[C@H](C)CCCCCCNc2cc(cc(OC)n2)C(=O)N1` (stereo partly drawn) [Example 11, N-Butyl-4-hydroxy-4-((9R)-16-methoxy-9-methyl-13-oxo-2,12,17-triaza-bicyclo[12.3.1]octadeca-1(17),14(18),15-trien-11-yl)-2-methyl-butyramide], the melting point (in general, the temperature of the solid-liquid transition) lay within 178 to 182 °C.

(Values after US7612055B2, “Macrocyclic lactams and pharmaceutical use thereof” (Novartis AG, priority 2003, dated 2009).)
